Data reported in PubChem BioAssay AID330 (DTP/NCI, 2004).
“And” between values parts separate entries of the source, which are not always exact repeats. Equal values may be shown once. Toxic doses and inconclusive results are not listed. Square brackets hold non-standard residues; d marks the D form. Peptide text beside a SMILES is read from it. Ac5c = NC1(C(=O)O)CCCC1

Test system: P388 leukemia ip, CD2F1 mice, survival T/C
Assay: NCI In Vivo Anticancer Drug Screen. Data for tumor model P388 Leukemia (intraperitoneal) in CD2F1 (CDF1) mice
Conditions: endpoint: median survival time, higher = longer survival
Method in brief: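 Mice carrying the transplanted tumor received test compound or vehicle. Survival was recorded in each group, and the value is the treated-group measurement divided by that of the vehicle-treated control group.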

[1] = dose: 50.0 mg/kg/injection, schedule: Q01DX009 (ip), vehicle: saline
[2] = dose: 100.0 mg/kg/injection, schedule: Q01DX009 (ip), vehicle: saline
[3] = dose: 200.0 mg/kg/injection, schedule: Q01DX009 (ip), vehicle: saline
[4] = dose: 50.0 mg/kg/injection, schedule: Q01DX009 (ip), vehicle: saline with Tween-80
[5] = dose: 100.0 mg/kg/injection, schedule: Q01DX009 (ip), vehicle: saline with Tween-80
[6] = dose: 200.0 mg/kg/injection, schedule: Q01DX009 (ip), vehicle: saline with Tween-80
[7] = dose: 100.0 mg/kg/injection, schedule: Q01DX001 (ip), vehicle: saline with Tween-80
[8] = dose: 200.0 mg/kg/injection, schedule: Q01DX001 (ip), vehicle: saline with Tween-80
[9] = dose: 400.0 mg/kg/injection, schedule: Q01DX001 (ip), vehicle: saline with Tween-80
[10] = dose: 60.0 mg/kg/injection, schedule: Q01DX005 (ip), vehicle: saline with Tween-80
[11] = dose: 120.0 mg/kg/injection, schedule: Q01DX005 (ip), vehicle: saline with Tween-80
[12] = dose: 50.0 mg/kg/injection, schedule: Q01DX005 (ip), vehicle: saline with Tween-80
[13] = dose: 12.5 mg/kg/injection, schedule: Q01DX005 (ip), vehicle: saline with Tween-80
[14] = dose: 25.0 mg/kg/injection, schedule: Q01DX005 (ip), vehicle: saline with Tween-80
[15] = dose: 100.0 mg/kg/injection, schedule: Q04DX003 (ip), vehicle: saline
[16] = dose: 200.0 mg/kg/injection, schedule: Q04DX003 (ip), vehicle: saline
[17] = dose: 400.0 mg/kg/injection, schedule: Q04DX003 (ip), vehicle: saline

CC(C)(C)C(=O)NC(Cc1cnc[nH]1)C(=O)O (stereo not given)
T/C [1]: 100 % of control
T/C [2]: 106 % of control
T/C [3]: 108 % of control

O=C1CC(c2ccccc2)C(=O)N1CN1CC=CCC1 (stereo not given)
T/C (dose: 100.0 mg/kg/injection, schedule: Q01DX001 (ip), vehicle: Klucel (hydroxypropylcellulose) (HPC)): 124 % of control

COC1/C=C/OC2(C)Oc3c(C)c(O)c4c(O)c(c(/C=N/Nc5nc6c(N)ncnc6n5C5OC(CO)C(O)C5O)c(O)c4c3C2=O)NC(=O)C(C)=C/C=C/C(C)C(O)C(C)C(O)C(C)C(OC(C)=O)C1C (stereo not given)
T/C [4]: 104 % of control
T/C [5]: 99 % of control
T/C [6]: 113 % of control

CCOC(=O)C(NC(=O)C(Cc1ccc(N(CCCl)CCCl)cc1)NC(C)=O)C(C)C (stereo not given)
T/C (dose: 3.13 mg/kg/injection, schedule: Q04DX003 (ip), vehicle: saline): 100 % of control
T/C (dose: 6.25 mg/kg/injection, schedule: Q04DX003 (ip), vehicle: saline): 109 % of control
T/C (dose: 12.5 mg/kg/injection, schedule: Q04DX003 (ip), vehicle: saline): 118 % of control
T/C (dose: 25.0 mg/kg/injection, schedule: Q01DX009 (ip), vehicle: saline with Tween-80): 160 % of control
T/C [4]: 180 % of control
T/C (dose: 50.0 mg/kg/injection, schedule: Q04DX003 (ip), vehicle: saline with Tween-80): 159 % of control
T/C [5]: 245 % of control
T/C (dose: 100.0 mg/kg/injection, schedule: Q04DX003 (ip), vehicle: saline with Tween-80): 163 % of control and 175 % of control
T/C (dose: 150.0 mg/kg/injection, schedule: Q04DX003 (ip), vehicle: other): 151 % of control
T/C (dose: 160.0 mg/kg/injection, schedule: Q04DX003 (ip), vehicle: other): 161 % of control
T/C (dose: 200.0 mg/kg/injection, schedule: Q04DX003 (ip), vehicle: saline with Tween-80): 154 % of control
T/C (dose: 300.0 mg/kg/injection, schedule: Q04DX003 (ip), vehicle: other): 174 % of control
T/C (dose: 400.0 mg/kg/injection, schedule: Q04DX003 (ip), vehicle: other): 159 % of control

CC1CC2([Si](C)(C)C)C(=O)NC(=O)NC12 (stereo not given)
T/C (dose: 25.0 mg/kg/injection, schedule: Q01DX005 (ip), vehicle: Klucel (hydroxypropylcellulose) (HPC)): 112 % of control
T/C (dose: 50.0 mg/kg/injection, schedule: Q01DX005 (ip), vehicle: Klucel (hydroxypropylcellulose) (HPC)): 103 % of control
T/C (dose: 100.0 mg/kg/injection, schedule: Q01DX005 (ip), vehicle: Klucel (hydroxypropylcellulose) (HPC)): 112 % of control
T/C (dose: 200.0 mg/kg/injection, schedule: Q01DX005 (ip), vehicle: Klucel (hydroxypropylcellulose) (HPC)): 99 % of control

CCOC(=O)c1cnn(CC(OCC)OCC)c1N
T/C [7]: 102 % of control
T/C [8]: 108 % of control
T/C [9]: 109 % of control

O=C1CSC(=S)N1c1ccc2c(c1)OCO2
T/C [10]: 92 % of control
T/C [11]: 90 % of control
T/C (dose: 240.0 mg/kg/injection, schedule: Q01DX005 (ip), vehicle: saline with Tween-80): 90 % of control

CCOC(=O)c1c(SCC)c(C=C(C(C)=O)C(C)=O)c2ccccn12
T/C [7]: 99 % of control
T/C [8]: 95 % of control
T/C [9]: 89 % of control

COc1ccc(C(=NCCO)c2ccc(O)cc2)c(OC)c1
T/C [12]: 104 % of control
T/C (dose: 100.0 mg/kg/injection, schedule: Q01DX005 (ip), vehicle: saline with Tween-80): 92 % of control
T/C (dose: 200.0 mg/kg/injection, schedule: Q01DX005 (ip), vehicle: saline with Tween-80): 91 % of control

COC(=O)c1c(C(=O)c2ccccc2)nnn1-c1cccc(C(F)(F)F)c1
T/C (dose: 60.0 mg/kg/injection, schedule: Q01DX005 (ip), vehicle: Klucel + Tween-80): 102 % of control
T/C (dose: 120.0 mg/kg/injection, schedule: Q01DX005 (ip), vehicle: Klucel + Tween-80): 103 % of control
T/C (dose: 240.0 mg/kg/injection, schedule: Q01DX005 (ip), vehicle: Klucel + Tween-80): 107 % of control

O=C(Nc1cccc(Cl)c1)Sc1c(Cl)c(Cl)c(Cl)c(Cl)c1Cl
T/C [4]: 106 % of control
T/C [5]: 109 % of control
T/C [6]: 112 % of control

CC1(C)CC(=O)c2ccccc21
T/C (dose: 3.12 mg/kg/injection, schedule: Q01DX005 (ip), vehicle: saline with Tween-80): 106 % of control
T/C (dose: 6.25 mg/kg/injection, schedule: Q01DX005 (ip), vehicle: saline with Tween-80): 103 % of control
T/C [13]: 113 % of control
T/C [14]: 113 % of control

CCCCCCCCCCCCCCCCS(=O)(=O)N/N=C(/C)N(C)c1ccc(OC)cc1
T/C (dose: 50.0 mg/kg/injection, schedule: Q01DX009 (ip), vehicle: Klucel (hydroxypropylcellulose) (HPC)): 107 % of control
T/C (dose: 100.0 mg/kg/injection, schedule: Q01DX009 (ip), vehicle: Klucel (hydroxypropylcellulose) (HPC)): 107 % of control
T/C (dose: 200.0 mg/kg/injection, schedule: Q01DX009 (ip), vehicle: Klucel (hydroxypropylcellulose) (HPC)): 111 % of control

COC(=O)C#CCO
T/C (dose: 6.25 mg/kg/injection, schedule: Q01DX009 (ip), vehicle: water): 103 % of control
T/C (dose: 12.5 mg/kg/injection, schedule: Q01DX009 (ip), vehicle: water): 112 % of control and 94 % of control
T/C (dose: 25.0 mg/kg/injection, schedule: Q01DX009 (ip), vehicle: water): 112 % of control and 120 % of control
T/C (dose: 50.0 mg/kg/injection, schedule: Q01DX009 (ip), vehicle: water): 112 % of control and 122 % of control

NCC(=O)NC1(C(=O)O)CCCC1 (H-Gly-[Ac5c]-OH)
T/C (dose: 25.0 mg/kg/injection, schedule: Q01DX009 (ip), vehicle: saline): 118 % of control
T/C [1]: 118 % of control
T/C [2]: 122 % of control
T/C [15]: 95 % of control
T/C [3]: 105 % of control
T/C [16]: 100 % of control
T/C (dose: 400.0 mg/kg/injection, schedule: Q01DX009 (ip), vehicle: saline): 93 % of control
T/C [17]: 108 % of control

Cc1cn(CCCSCC2OC3OC4C(CO)OC(OC5C(CO)OC(OC6C(CO)OC(OC7C(CO)OC(OC8C(CO)OC(OC9C(CO)OC(OC2C(O)C3O)C(O)C9O)C(O)C8O)C(O)C7O)C(O)C6O)C(O)C5O)C(O)C4O)c(=O)[nH]c1=O (stereo not given)
T/C (dose: 50.0 mg/kg/injection, schedule: Q01DX005 (ip), vehicle: saline): 103 % of control
T/C (dose: 100.0 mg/kg/injection, schedule: Q01DX005 (ip), vehicle: saline): 100 % of control
T/C (dose: 200.0 mg/kg/injection, schedule: Q01DX005 (ip), vehicle: saline): 98 % of control

COc1cc(NCCCCCNCC(C)(C)C)c2ncccc2c1
T/C [13]: 109 % of control
T/C [14]: 107 % of control
T/C [12]: 91 % of control and 93 % of control

N#Cc1c(-c2ccc(Cl)cc2)c(-c2ccc(Cl)cc2)nn(CCCl)c1=O
T/C (dose: 100.0 mg/kg/injection, schedule: Q04DX002 (ip), vehicle: saline with Tween-80): 91 % of control
T/C (dose: 200.0 mg/kg/injection, schedule: Q04DX002 (ip), vehicle: saline with Tween-80): 100 % of control
T/C (dose: 400.0 mg/kg/injection, schedule: Q04DX002 (ip), vehicle: saline with Tween-80): 91 % of control

N=C(N)SCc1ccc(C(=O)NN2C(=O)c3ccccc3C2=O)cc1
T/C [4]: 92 % of control
T/C [5]: 92 % of control
T/C [6]: 97 % of control

CCC=Nc1c(O)cc(-c2ccccc2)n(C)c1=O
T/C [10]: 94 % of control
T/C [11]: 100 % of control

COC(=O)C1(C)C(=O)C=CC2(C)C1CC(O)C1(C)C2C(O)C(O)C2(C)C(c3ccoc3)CC3OC321 (stereo not given) (tested in a mixture with another compound)
T/C (dose: 0.75 mg/kg/injection, schedule: Q01DX005 (ip), vehicle: Klucel (hydroxypropylcellulose) (HPC)): 102 % of control
T/C (dose: 1.5 mg/kg/injection, schedule: Q01DX005 (ip), vehicle: Klucel (hydroxypropylcellulose) (HPC)): 96 % of control
T/C (dose: 3.0 mg/kg/injection, schedule: Q01DX005 (ip), vehicle: Klucel (hydroxypropylcellulose) (HPC)): 96 % of control
T/C (dose: 6.0 mg/kg/injection, schedule: Q01DX005 (ip), vehicle: Klucel (hydroxypropylcellulose) (HPC)): 99 % of control
T/C (dose: 12.0 mg/kg/injection, schedule: Q01DX005 (ip), vehicle: Klucel (hydroxypropylcellulose) (HPC)): 103 % of control

ClCCN(CCCl)c1ccc(/C=N/Nc2c3ccccc3nc3ccccc23)cc1
T/C (dose: 6.25 mg/kg/injection, schedule: Q01DX009 (ip), vehicle: DMSO): 88 % of control
T/C (dose: 12.5 mg/kg/injection, schedule: Q01DX009 (ip), vehicle: DMSO): 90 % of control

CCOC(=O)/C=C(\C)N1CCCCC1
T/C [15]: 100 % of control
T/C [16]: 100 % of control
T/C [17]: 100 % of control
